Test results: EP0098942A1, “Optically active imidazolylpropanol compounds, and their production and use” (SUMITOMO CHEMICAL COMPANY, LIMITED, priority 1982, dated 1984)

Experiments:
[1] = tested on: Candida albicans, strain KB-8 (clinical isolate); assay: In vitro inhibition of pseudomycelium formation; format: cell-based; conditions: effective dose to inhibit formation of pseudomycelium, light microscopy at 72 hours after inoculation, Eagle's MEM, 37°C, 5 % CO2, read-out: Minimum effective dose
Protocol: Candida albicans, strain KB-8 (clinical isolate), was maintained on Sabouraud's agar slants at room temperature. Yeast cells were grown at 37°C on Sabouraud's agar and a loopful from a 24 hours' slant was inoculated in 4.5 ml of Sabouraud's broth and cultured at 37°C for 24 hours. A 0.5 ml aliquot of this culture was inoculated in 100 ml of a casein hydrolysate yeast-extract glucose medium (CYG medium). Cells were grown at 37°C aerobically in a reciprocating shaker for 48 hours. From this culture, a 0.2 ml aliquot was again inoculated in 100 ml CYG medium and grown for another 24 hours at 37°C while shaking.
The pseudomycelium growth-promoting medium consisted of Eagle's minimal essential medium supplemented with non-essential amino acids and sodium bicarbonate (2 g/liter). Yeast cells were seeded at densities of 1.0 x 10^5/ml in sterile culture tubes (010 x 100 mm) containing 3 ml of medium. Cells were grown in a humidified atmosphere of 5 % C02 in air at 37°C.
The effects of the test compound were evaluated . under the following conditions: the cultures were exposed to the test compound in doses ranging from […] to 10^-4 M; the solvent for the test compound was added as an aqueous solution. Pseudomycelium development was observed by light microscopy at 72 hours after inoculation.

Candida albicans KB-8 = assay: Number of viable cells in the kidney of Candida-infected mice; format: in vivo, DDY strain male mice; conditions: per os, total dose 20 mg/kg; for Medicated group, number of cells in kidney (cell/g): given immediately and 5 hours after infection, kidneys taken 24 hours after infection; for Medicated/ Non-medicated (logarithmic value): kidney cell count 24 hours after infection, non-medicated group 1.45x10^5 cell/g
Protocol: Candida albicans KB-8 was cultured on a Sabouraud's agar plate admixed with blood in a concentration of 5 % (v/v) - at 30°C for 4 days, suspended in physiologically saline solution and diluted to approximately 10,000,000 cells/ml. DDY strain male mice were […] via the tail vein with 0.2 ml of this suspension.
The animals were orally medicated with the test compound in the form of 0,5 % (w/v) methylcellulose supension at a total dose of 20 mg per kg of the body weight immediately and 5 hours after the infection.
After 24 hours from the infection, the animals were sacrificed, and the kidneys were taken out. After the kidneys were homogenized in 4 fold sterilized physiologically saline solution, a certain amount of the suspension was scattered on a Sabouraud's agar plate and cultured at 37°C for 48 hours. Then, the number of colonies was counted, the number of cells per one gram of the kidney was calculated, and the difference between the calculated numbers in the medicated group and in the non- medicated group was expresed by a logarithmic value.

Structure (SMILES) | minimal effective concentration [1] | Medicated group, number of cells in kidney (cell/g) (Candida albicans KB-8) | Medicated/ Non-medicated (logarithmic value) (Candida albicans KB-8)
CCCCSC[C@](O)(Cn1ccnc1)c1ccc(Cl)cc1Cl [I (n=3), (R)-3-(n-butylthio)-2-(2,4-dichlorophenyl)-1-(imidazol-1-yl)-2-propanol] | 0.001 µM | 1.41x10^3 cell/g | -2.01
CCCCSC[C@@](O)(Cn1ccnc1)c1ccc(Cl)cc1Cl [B, (S)-3-(n-butylthio)-2-(2,4-dichlorophenyl)-1-(imidazol-1-yl)-2-propanol] | 1 µM | 1.82x10^4 cell/g | -0.90
CCCCSCC(O)(Cn1ccnc1)c1ccc(Cl)cc1Cl (racemic) [A] | 0.1 µM | 1.86x10^3 cell/g | -1.89
